Measurements published in patent US20090118285A1, “USE OF KCNQ-OPENERS FOR TREATING OR REDUCING THE SYMPTOMS OF SCHIZOPHRENIA” (H. Lundbeck A/S, priority 2006, published 2009).

Experiments:
[1] = test system: immobility in the mouse forced swim test; experiment: Mouse forced swim test; type: in vivo; conditions: 30 min before the test, mice, last 3 min of 6 min swim, vehicle = 100
[2] = test system: amphetamine-induced hyperactivity in the rat; experiment: Amphetamine challenge: d-amphetamine induced hyperactivity in rats; type: in vivo; conditions: test substance s.c. 30 min before d-amphetamine sulphate 0.5 mg/kg, motility 2 hours, read-out: Amphetamine antagonism ED50 ± std. dev.
Source text: D-amphetamine administration to rodents stimulates an increase in locomotor activity via mesolimbic dopamine receptors in the nucleus accumbens. While psychostimulant psychosis may not model all forms of schizophrenia, it may have applicability to paranoid schizophrenia and non-schizophrenic psychotic disorders (Krystal et al. pp. 214-224 in Neurobiology of Mental Illness ISBN 0-19-511265-2). It is believed that inhibition of the amphetamine-induced increase in locomotor activity is a reliable method for the evaluation of compounds with an antipsychotic potential (Ögren et al., European J. Pharmacol. 1984, 102, 459-464). In the following experiment, it was tested if the inhibition of spontaneous DA neurons in the mesolimbic circuit that was assessed above, could be translated into behavioral antipsychotic endpoint.
Subjects. Male Wistar rats (Taconic, Denmark) weighing 170-240 g are used. The animals were housed under a 12-hr light/dark cycle under controlled conditions for regular in-door temperature (21±2° C.) and humidity (55±5%) with food and tap water available ad libitum. Eight rats were used at each dose level and in the parallel control group receiving the vehicle to the test compound plus d-amphetamine and the group receiving vehicle injections only.

[3] = test system: sensitised behavioural response to amphetamine in mice; experiment: Amphetamine sensitisation: sensitised behavioural response to amphetamine in mice; type: in vivo, mouse; conditions: amphetamine-pretreated mice, compound s.c. 30 min before D-amphetamine challenge 1.25 mg/kg s.c., 30 min test; for ED50: Mus musculus, read-out: Inhibition of amphetamine sensitised response. ED50 (±S.D.)
Procedure: Inhibition of the behavioral response to an acute amphetamine challenge in sensitised animals is proposed as a model for evaluating the antipsychotic or antimanic potential of compounds.
Subjects. Male NMRI mice (Charles River) weighing approx. 35 g are used. The animals were housed 6 mice pr cage in a 12-hr light/dark cycle under controlled conditions for regular in-door temperature (21±2° C.) and humidity (55±5%) with food and tap water available ad libitum. 12 mice are used pr experimental group.
Administration of compounds.

[4] = Inhibition of baseline motility in vehicle-pretreated, vehicle-challenged mice; conditions: NMRI, mouse, in vivo
[5] = test system: baseline motility in mice; experiment: as above; conditions: vehicle-pretreated, vehicle-challenged mice, compound s.c.
[6] = test system: DA levels in the nucleus accumbens; experiment: Microdialysis: DA levels in the nucleus accumbens of freely moving rats; type: in vivo, rat; conditions: no amphetamine provocation, data not shown
[7] = test system: DA levels in the nucleus accumbens; experiment: as above; type: in vivo, rat; conditions: 5 mg/kg s.c., freely moving rats
Source text: It is well-known that psychostimulants increase locomotor activity via an increase in extracellular DA levels in the nucleus accumbens, which is the terminal area of the mesolimbic DA projections (Guix et al., 1992, Neurosci. Lett., 138(1), 137-140; Moghaddam et al., 1989, Synapse, 4(2), 156-161). It is also known, that the antagonistic effect of antipsychotics on stimulant-induced hyperlocomotion is related to the effect of antipsychotics to inhibit the stimulated DA levels in the nucleus accumbens (Broderick et al., 2004, Prog. Neuropsychopharmacology and Biol. Psych., 28, 157-171). Thus, the nucleus accumbens is an accepted neuroanatomical site for testing reversal of positive symptoms of psychosis. […] The experiments were conducted such that the data may be associated with the behavioural data obtained above.
Subjects. Male Sprague-Dawley rats (Charles River), initially weighing 275-300 g, were used. The animals were housed under a 12-hr light/dark cycle under controlled conditions for regular in-door temperature (21±2° C.) and humidity (55±5%) with food and tap water available ad libitum.
Surgery. Animals were anaesthetized with hypnorm/dormicum (2 ml/kg s.c.) and intracerebral guide cannulas (CMA/12) were stereotaxically implanted, positioning the dialysis probe tip in the nucleus accumbens (co-ordinates: […] anterior to bregma, —1.2 mm lateral to bregma, 8.0 mm ventral to the dura). Anchor screws and acrylic cement was applied for fixation of the guide cannula. The body temperature of the animals was maintained at 37° C. by means of a rectal probe and a heating plate. The rats were allowed to recover from surgery for 2 days, housed singly in cages.
Experimental procedure. On the day of the experiment, a microdialysis probe (CMA/12, 0.5 mm diameter, 2 mm length) was inserted through the guide cannula of the conscious animal. The probes were connected to a microinjection pump via a dual channel swivel which allowed the animals unrestricted movements. Perfusion of the microdialysis probe with filtered Ringer solution (145 mM NaCl, 3 mM KCl, 1 mM MgCl2, 1.2 mM CaCl2) was maintained for the duration of the experiment at a constant flow rate of 1 μL/min. After 180 min of stabilisation, the experiments were initiated. Dialysates were collected every 20 min. After the experiments the rats were sacrificed by decapitation, their brains removed, frozen and sliced for probe placement verification.
Administration of compounds. […] Thirty min after the first administration dex-amphetamine sulphate (0.5 mg/kg s.c.) was administered.
Analysis of dialysate. The concentration of dopamine (DA) in the dialysates was assessed by means of HPLC with electrochemical detection. The dialysate constitutents were separated by reverse phase liquid chromatography (ODS 150×3 mm, […]). Mobile phase consisted of 90 mM NaH2PO4, 50 mM sodium citrate, 367 mg/l sodium 1-octanesulfonic acid, 50 μM EDTA and 8% acetonitrile (pH 4.0) at a flow rate of 0.5 ml/min. Electrochemical detection of DA was accomplished using a coulometric detector; potential set at E1=−75 mV and E2=300 mV (guard cell at 350 mV) (Coulochem II, ESA). The dialysate levels of DA in the three dialyse samples preceding the administration of compound were averaged and used as baseline level of DA (100%)

[8] = Motility inhibition (sedative properties) without d-amphetamine, rat; conditions: Wistar, in vivo, sc
[9] = test system: conditioned avoidance response in rats; experiment: Conditioned avoidance response in rats; type: in vivo, rat; conditions: for % inhibition of avoidance. Relative to baseline.: rats; for Escape failures (effect on motor performance): rat, in vivo
Source text: In the conditioned avoidance response (CAR) model, rats are trained to respond to a stimulus within a fixed time by moving from one place to another in order to avoid a footshock. Antipsychotics selectively suppress the avoidance response within a certain dose-range without suppressing escape behavior elicited by the appearance of the footshock. The CAR model is considered to be a predictive and reliable animal model that is sensitive to compounds with an antipsychotic potential.
Subjects. Male Wistar rats (Taconic, Denmark) weighing 150 g at the beginning of the study are used. The rats are housed ii pairs and maintained on a 12 h light/dark cycle (lights on 06:00). The animals are fed once daily (approx. 6 pellets/rat) in order to keep the rats at 80% of their free-feeding weight. Water is available ad libitum. Temperature (21±1° C.) and relative humidity (55±5%) are automatically controlled.
Experimental procedure. Conditioned avoidance testing is conducted using four automated shuttle-boxes (ENV-010M, MED-Associates) each placed in a sound-attenuated chamber. Each box is divided into two compartments by a partition with an opening. The position of the animal and crossings from one compartment to the other are detected by two photocells placed on either side of the dividing wall. Upon presentation of the conditioned stimuli (CS), tone and light, the animals have 10 s to cross to the other compartment of the shuttle-box in order to turn the CS off (end the trial) and avoid the appearance of the unconditioned stimulus (UCS). If the rat remains in the same compartment for more than 10 s, the UCS is presented as 0.5 mA scrambled foot-shocks until escape is performed or 10 s in maximal duration. The following behavioural variables are evaluated: avoidance (response to CS within 10 s); escape (response to CS+UCS); escape failures (failure to respond); intertrial crosses and locomotor activity. The rats are habituated to the shuttle-box 3 min before each test session. During training each test session consists of 30 trials with intertrial intervals varying randomly between 20 s and 30 s. Training is carried until the rats display an avoidance of 80% or more, on 3 consecutive days. A test is preceded by a pre-test the day before giving rise to a baseline value for each animal, thus the animals serve as their own control. Seven to eight rats are used at each dose level. A parallel control group receiving the vehicle of the test compound is also included.
Administration of compound.
Statistical analyses. The effects of compounds on avoidance and escape failure behaviours were statistically evaluated by means of a two-way repeated measures ANOVA followed by post hoc comparisons (Student-Newman-Keuls Method) when appropriate. P-levels <0.05 were considered statistically significant.

in vivo = conditions: Wistar, rat, sc
[10] = 2.5 mg/kg s.c. 30 min before the test
[11] = 5 mg/kg s.c. 30 min before the test

Compound: Cc1cc2c(s1)Nc1ccccc1N=C2N1CCN(C)CC1 [Olanzapine]
- Immobility in % ([1]; dose 0.31 mg/kg): 96%
- Immobility in % ([1]; dose 1.3 mg/kg): 95%
- ED50 [2]: 0.21 mg/kg

Compound: Cc1cc(N2CCOCC2)nc(C)c1NC(=O)CC(C)(C)C [N-(2,4-Dimethyl-6-morpholin-4-yl-pyridin-3-yl)-3,3-dimethyl-butyramide]
- ED50 [3]: 1.4 mg/kg
- ED50 at 30 min ([4]; subcutaneous): 3.1 mg/kg

Compound: Cc1nc(N2CCOCC2)nc(C)c1NC(=O)Cc1ccc(F)cc1 [N-(4,6-Dimethyl-2-morpholin-4-yl-pyrimidin-5-yl)-2-(4-fluoro-henyl)-acetamide]
- Inhibition of amphetamine sensitised response. ED50 (±S.D.) [3]: 0.4 mg/kg
- Inhibition of baseline motility. ED50 (±S.D.) [5]: 2.2 mg/kg

Compound: Cc1cc(N2CCOCC2)cc(C)c1NC(=O)CC1CCCC1
- Effect on basal extracellular DA level in the nucleus accumbens [6]: merely provoked levels of DA were affected, but not basal levels of DA
- ED50 [2]: 2.6 mg/kg
- DA level in the nucleus accumbens, amphetamine + compound ([7]; time 0 min): 99 ± 4 % of baseline
- DA level in the nucleus accumbens, amphetamine + compound ([7]; time −40 min): 95 ± 6 % of baseline
- ED50 at 2 h [8]: 5.3 mg/kg
- ED50 [3]: 1.2 mg/kg
- % inhibition of avoidance. Relative to baseline. [9, 10]: 5%
- % inhibition of avoidance. Relative to baseline. [9, 11]: 65%
- Escape failures (effect on motor performance) [9]: None of the tested doses caused any incidences of escape failures
- ED50 at 30 min ([4]; subcutaneous): 2.2 mg/kg

Compound: Cc1cc(N2CCOCC2)cc(C)c1NC(=O)CC(C)(C)C
- Effect on basal extracellular DA level in the nucleus accumbens [6]: merely provoked levels of DA were affected, but not basal levels of DA
- ED50 [2]: 2.1 mg/kg
- DA level in the nucleus accumbens, amphetamine + compound ([7]; time 0 min): 91 ± 4 % of baseline
- DA level in the nucleus accumbens, amphetamine + compound ([7]; time −20 min): 100 ± 3 % of baseline
- ED50 at 2 h [8]: 7.6 mg/kg
- ED50 [3]: 1.6 mg/kg
- % inhibition of avoidance. Relative to baseline. [9, 10]: 1%
- % inhibition of avoidance. Relative to baseline. [9, 11]: 71%
- Escape failures (effect on motor performance) [9]: None of the tested doses caused any incidences of escape failures
- ED50 at 30 min ([4]; subcutaneous): > 2.5 mg/kg

Compound: CCC(=O)Nc1c(Br)cc(N2CCOCC2)cc1C(F)(F)F [N-(2-Bromo-4-morpholin-4-yl-6-trifluoromethyl-phenyl)-propionamide]
- ED50 [3]: 3.1 mg/kg
- ED50 at 30 min ([4]; subcutaneous): 6 mg/kg

Compound: [Li] [Lithium-chloride]
- ED50 [2]: 12 mg/kg
- ED50 at 2 h (in vivo): > 40 mg/kg

Compound: CCOC(=O)Nc1ccc(NCc2c(C)cc(C)cc2C)cc1N [[2-Amino-4-(2,4,6-trimethyl-benzylamino)-phenyl]-carbamic acid ethyl ester]
- ED50 at 30 min [4]: 4.3 mg/kg

Compound: COc1cc(N2CCOCC2)cc(C)c1NC(=O)CC1CCCC1 [2-Cyclopentyl-N-(2-methoxy-6-methyl-4-morpholin-4-yl-phenyl)-acetamide]
- ED50 [3]: 1.7 mg/kg
- ED50 at 30 min ([4]; subcutaneous): 3 mg/kg

Compound: CCCCCC(=O)Nc1c(F)cc(N2CCOCC2)cc1F [Hexanoic acid (2,6-difluoro-4-morpholin-4-yl-phenyl)-amide]
- ED50 [3]: 2.4 mg/kg
- ED50 at 30 min ([4]; subcutaneous): > 5 mg/kg

Compound: Cc1nc(N2CCOCC2)nc(C)c1NC(=O)CC1CCCC1 [2-Cyclopentyl-N-(4,6-dimethyl-2-morpholin-4-yl-pyrimidin-5-yl)-acetamide]
- ED50 [3]: 0.9 mg/kg
- ED50 at 30 min ([4]; subcutaneous): 2.5 mg/kg
